Reference: US8592603B2, “Synthesis of 2-(4-aminophenyl) benzothiazole derivatives and use thereof” (Kaohsiung Medical University, priority 2011, dated 2013)
Where two headings read alike, the source gives them in different places.

What was measured:
Type in all cases: cell-based, human
BCC cells [1] = assay: Cell viability by MTT assay after compound and UVA irradiation; details: for viability at 4 µM: Homo sapiens, BCC, light or radiation study, read-out: cell viability compared with untreated controls
Procedure: (A) Dose-response curves for compound 6 ftested against BCC cells. Cells were seeded in a 96-well plate at 2500 cells per well and cultivated overnight until cell attachment. 6f-UVA at the indicated concentration was added into the culture media in triplicate and incubated for 4 h before 1 J/cm2 UVA irradiation. Twenty-four hours after irradiation, the MTT reagent was added into each well. The absorbance is directly proportional to the number of living cells. (B) To clarify whether 6-UVA has more cytotoxicity than either UVA irradiation alone or treatment with 6 alone, cells were cultured with or without 4 μM Formula 6f before different dosage of UVA irradiation. *p<0.05, **p<0.01 as compared with the control.
The method for UVA irradiation was described in the previous study (Kao, C. S.; Yu, H. S. J. Invest. Dermatol. 1992, 98, 734). For UVA irradiation, a specific UVA lamp emitting a peak wavelength of 365 nm with intensity of 0.75 mW/cm^2 (Vilber Lourmat, Moune La Vallee, Cedex, France) was used. The cultured cells were pretreated with different agents at 4 μM or pretreated with various concentrations (0-4 μM) of Formula 6 for 4 h before UVA irradiation. The cultured cells were rinsed with phosphate-buffered saline (PBS) and then irradiated with 1 J/cm^2 UVA in PBS to avoid the formation of medium-derived toxic photoproducts induced by UV exposure. The doses of irradiation were measured using a UVX radiometer (UVP, San Gabriel, Calif., USA). Immediately after phototreatment, PBS was removed and media were added to the cells. All the following experiments were performed three times in triplicate.
Cell viability was assessed by the MTT assay, a mitochondrial function assay based on the ability of viable cells to reduce the redox indicator MTT to insoluble formazan crystals by mitochondrial dehydrogenase. Briefly, cells were seeded in a 96-well plate at the cell density of 2500 cells/well. After an overnight incubation, the cells were treated with compounds at 4 μM and incubated for 24 h. The medium was then discarded and replaced with 10 μL of MTT dye. Plates were incubated at 37° C. for 2 h. The resulting formazan crystals were solubilized in 100 μL DMSO, and the optical density was read at 540 nm with a microplate reader (MRX-II, Dynex technology, Chantilly, Va.).

p38 = assay: Western blot analysis of MAPK phosphorylation: p38; details: BCC cells, 6f-UVA at 4 μM, compared with untreated control (FIG. 6A)
Procedure: (A) After exposure to different concentration of 6f-UVA, cell lysates were collected and immunoblotted with specific antibodies as indicated. For the internal control, the same amounts of protein extract were also probed with antibody against actin. (B) As a control, the expression level of p-ERK was determined in the presence of oligomycin (25 μM) and ATP (1×10^−4M)
Total cell extracts from cultured BCC cells were obtained by lysing the cells in ice-cold RIPA buffer (1×PBS, 1% NP-40, 0.5% sodium deoxycholate, 0.1% SDS) containing 100 μg/mL PMSF, 2 μg/mL aprotinin, 2 μg/mL leupeptin and 100 μg/mL NaF. After centrifugation at 14,000 g for 30 min, protein in the supernatants was quantified by Bradford method (Bio-Rad). Forty micrograms of protein per lane was applied in 10% SDS-poly-acrylamide gel. After electrophoresis, protein was transferred from the gel to polyvinylidene difluoride (PVDF) membrane (Millipore, Bedford, Mass.). The membranes were blocked at room temperature for 1 h in PBS+0.1% Tween 20 (PBS-T) containing 5% skim milk. After being briefly rinsed with PBS-T, the blots were probed with respective primary antibodies at room temperature for 2 h or at 4° C. overnight. […] The relative amounts of specific proteins were quantified by densitometry scanning of X-ray films and analyzed by Eagle Eye Image System (Stratagene, La Jolla, Calif.)

BCC cells [2] = assay: Sub-G1 region analysis (PI, flow cytometry); details: 4 μM for 4 hours, 1 J/cm^2 UVA, 24 h after irradiation
Procedure: BCC cells were treated with compounds at 4 μM and 1 J/cm^2 UVA. Twenty-four hours after irradiation, cells were harvested by trypsinization and centrifugation. Cell pellets were resuspended in 50% cold ethanol and fixed at −20° C. After fixation, cells were washed once with cold PBS and incubated in 0.5 mL of PBS containing 100 μg/mL RNase A for 20 min at 37° C. Cells were harvested by centrifugation at 400 g for 5 min, and 250 μL of PBS containing 50 μg/mL propidium iodide (PI) was added to the pellet. Thirty minutes later, the DNA contents of 10,000 events were measured by FACSscan flow cytometer (Elite ESP, Beckman Coulter, Brea, Calif.). Histograms were analyzed using Windows Multiple Document Interface software (WinMDI). Cells with DNA content less than that in untreated cells in G0/G1 were considered apoptotic. To investigate the effects of compounds 6 on cell cycle progression of BCC cells, the DNA content of cell nuclei was measured by flow cytometric analysis. […] BCC cells were treated with 4 μM agents for 4 hours followed by 1 J/cm^2 UVA irradiation. Twenty-four hours after irradiation, the PI reagent was used. Approximately 10000 cells from each group were analyzed with the FACScan flow cytometer. The apoptotic effects in 2.2% (control), 6.5% (6a), 13.4% (6b), 29.2% (6c), 24.4% (6d), 6.5% (6e), 35.4% (6f), 13.6% (6g), 13.8% (6h), 14.8% (6i) and 6.4% (6j) of sub-G1 DNA peak were obtained (% represented the percentage of cell counts).

Q: With `Nc1ccc(-c2nc3ccc(C(F)(F)F)cc3s2)cc1` [Formula 6f, 2-(4-Aminophenyl)-6-trifluoromethylbenzothiazole] as the compound, how does the cell survival (BCC cells [1]; BCC cells, 4 μM for 4 h, 1 J/cm^2 UVA, 24 h after exposure (FIG. 3A)) read?
A: below 50%

Q: And the “inhibitory effect on cell viability” value (BCC cells [1]; BCC cells, different concentrations for 4 h, 1 J/cm^2 UVA (FIG. 3A))?
A: dependent on drug concentration

Q: What about the viability at 4 µM (BCC cells [1]; BCC cells, 0.25 J/cm^2 UVA) of the same compound?
A: 71%

Q: What about the viability at 4 µM (BCC cells [1]; BCC cells, 0.5 J/cm^2 UVA) of the same compound?
A: 65%

Q: And the viability at 4 µM (BCC cells [1]; BCC cells, 1 J/cm^2 UVA)?
A: 45%

Q: And the “cytotoxicity against BCC cells” value (BCC cells [1]; compound alone, without UVA irradiation (FIG. 3B))?
A: does not have cytotoxicity

Q: And the “phosphorylation of p38 (p-p38)” value (p38)?
A: increased

Q: What about the “sub-G1 DNA peak (apoptotic effects, percentage of cell counts)” value (BCC cells [2]) of the same compound?
A: 35.4%
